These results are taken from ChEMBL document CHEMBL5543059, “Discovery of anti-inflammatory natural flavonoids: Diverse scaffolds and promising leads for drug discovery” (Eur J Med Chem, 2023).

pIC50: −log10 of the molar value. Values after ≈ are worked out from the molar mass of the structure shown.

Test [1] concerns RAW264.7. The test can be described thus: Anti-inflammatory activity in mouse RAW264.7 cells assessed as inhibition of LPS-induced TNFalpha production preincubated for 1 hr followed by LPS addition and measured after 24 hrs by ELISA. Type of test: functional, cell-based.
Test [2] has as its system RAW264.7. The test can be described thus: Anti-inflammatory activity in mouse RAW264.7 cells assessed as inhibition of LPS-induced IL-1beta production preincubated for 1 hr followed by LPS addition and measured after 24 hrs by ELISA. Type of test: functional, cell-based.
In test [3] the test system is RAW264.7. Briefly: Anti-inflammatory activity in mouse RAW264.7 cells assessed as inhibition of LPS-induced IL-6 production preincubated for 1 hr followed by LPS addition and measured after 24 hrs by ELISA. Type of test: functional, cell-based.
Test [4] concerns RAW264.7. The test can be described thus: Anti-inflammatory activity against mouse RAW264.7 cells assessed as reduction in NO production pre-incubated with compound for 1 hrs followed by LPS-stimulation and measured for 1 hrs by […]. Type of test: functional, cell-based.
Test [5] in a line: Inhibition of nitric oxide synthase (unknown origin). On the set-up: species or system Homo sapiens.
Test [6] concerns BV-2. The test can be described thus: Antiinflammatory activity in LPS-induced mouse BV-2 cells assessed as reduction in COX-2 protein expression by Western blot analysis. Type of test: functional, cell-based.
Test [7] relates to RAW264.7. The test can be described thus: Antiinflammatory activity in LPS-activated mouse RAW264.7 cells assessed as inhibition of ROS production at 10 uM relative to control. Type of test: functional. The arrangement: scale not given: the % may be the effect or the level left.
Test [8] relates to Mus musculus. Briefly: Anti-inflammatory activity against TPA-induced mouse ear edema model assessed as inhibition of ear edema at 1 uM relative to control. Type of test: functional. On the set-up: scale not given: the % may be the effect or the level left.
For test [9], the system named is Peritoneal macrophage. The test can be described thus: Antiinflammatory activity against LPS-stimulated mouse peritoneal macrophage assessed as TNF-alpha level. Type of test: functional, cell-based.
The test system of test [10] is BV-2. The test can be described thus: Antiinflammatory activity in mouse BV-2 cells assessed as reduction in LPS-induced NO production by Griess reagent based analysis. Type of test: functional, cell-based.
Test [11] has as its system RAW264.7. Briefly: Antiinflammatory activity in mouse RAW264.7 cells assessed as reduction in iNOS protein expression at 5 to 40 uM relative to control. The note with it: dose 5-40 µM. Type of test: functional. On the set-up: scale not given: the % may be the effect or the level left.
Test [12] has as its system RAW264.7. The test can be described thus: Anti-inflammatory activity against mouse RAW264.7 cells assessed as inhibition of LPS-induced NO production pre-treated with compound for 1 hr followed by LPS-stimulation and measured for 1 hr. Type of test: functional, cell-based.
Test [13] relates to RAW264.7. The test can be described thus: Anti-inflammatory activity against mouse RAW264.7 cells assessed as inhibition of LPS-induced NO production pre-incubated for 1 hr followed by compound addition and measured after 18 hrs by Griess reagent based analysis. Type of test: functional, cell-based.
For test [14], the system named is Rattus norvegicus. The test can be described thus: Anti-inflammatory activity in LPS-induced Sprague-Dawley rat assessed as reduction in IL-1beta level at 20 mg/kg, po pre-incubated for 1 hr with compound followed by LPS-stimulation measured for 24 hrs by ELISA analysis. Type of test: functional. On the set-up: scale not given: the % may be the effect or the level left. The note with it: time 25 hrs.

Test [15] has as its system J774.A1. Briefly: Antiinflammatory activity against mouse J774.A1 cells assessed as inhibition of LPS-stimulated TNF-alpha level by ELISA method. Type of test: functional, cell-based. The note with it: Mus musculus, J774.A1; read-out: IC50.
Test [16] concerns RAW264.7. Briefly: Anti-inflammatory activity against mouse RAW264.7 cells assessed as inhibition of TNF-alpha production incubated for 18 hrs by ELISA analysis. Type of test: functional, cell-based. The note with it: RAW264.7, 18 h.
Test [17] has as its system RAW264.7. Briefly: Antiinflammatory activity against mouse RAW264.7 cells assessed as inhibition of LPS-stimulated TNF-alpha level by ELISA method. Type of test: functional, cell-based.
In test [18] the test system is RAW264.7. The test can be described thus: Antiinflammatory activity against mouse RAW264.7 cells assessed as inhibition of LPS-stimulated IL-1beta level by ELISA method. Type of test: functional, cell-based.
Test [19] concerns J774.A1. Briefly: Antiinflammatory activity against mouse J774.A1 cells assessed as inhibition of LPS-stimulated IL-1beta level by ELISA method. Type of test: functional, cell-based.
The test system of test [20] is Rattus norvegicus. The test can be described thus: Anti-inflammatory activity in LPS-induced Sprague-Dawley rat assessed as reduction in TNF-alpha level at 20 mg/kg, po pre-incubated for 1 hr with compound followed by LPS-stimulation measured for 24 hrs by ELISA analysis. Type of test: functional. On the set-up: scale not given: the % may be the effect or the level left. The settings on record: time 25 hrs.

In test [21] the test system is RAW264.7. The test can be described thus: Anti-inflammatory activity against mouse RAW264.7 cells assessed as inhibition of IL-1beta level incubated for 18 hrs by ELISA analysis. Type of test: functional, cell-based. The settings on record: RAW264.7, 18 h.

In the case of `O=c1c(O)c(-c2cc(O)c(O)c(O)c2)oc2cc(O)cc(O)c12` [MYRICETIN], the pIC50 was 4.62 in [1], 4.72 in test [2] and 4.71 in [3].

As to `O=C1C[C@@H](c2ccc(O)cc2)Oc2cc(O)ccc21` [LIQUIRTIGENIN], the pIC50 in test [4] was 4.79; in test [5], 4.72.

Consider `C=CC(C)(C)c1cc(/C=C/C(=O)c2ccc(O)cc2)c(OC)cc1O` [LICOAGROCHACONE A], for which, in test [6], the IC50 worked out at 0.625 µg/mL (≈ 1.85 µM). Besides, the Activity in [7] is 80%.

Regarding `O=c1c(O)c(-c2ccccc2)oc2cc(O)cc(O)c12` [GALANGIN], the Activity in test [8] turned out to be 27.7%.

Consider `O=c1c(-c2ccc(O)cc2)coc2cc(O)cc(O)c12` [GENISTEIN], for which the negative logarithm of the IC50 (pIC50) in [9] is 4.77.

Regarding `COc1cc(-c2cc(=O)c3c(O)c(OC)c(O)cc3o2)ccc1O` [JACEOSIDINE], the pIC50 in [10] was 4.57.

For `CC(C)=CCc1c([C@H]2Oc3cc(O)cc(O)c3C(=O)[C@@H]2O)cc2c(c1O)OC(C)(C)C=C2`, the Activity in test [11] is recorded as 42.8%.

In the case of `CC(C)=CCC/C(C)=C/Cc1c(O)ccc2c1O[C@H](c1ccc(O)cc1)CC2=O`, the negative-log IC50 (pIC50) in [12] is 5.09.

Take `CC(C)=CCC/C(C)=C/Cc1c(C2CC(=O)c3c(cc(O)c(CC=C(C)C)c3O)O2)ccc(O)c1O` (stereo unspecified): the negative-log IC50 (pIC50) in test [13] is 5.62.

Consider `COc1cc(O)c2c(c1)OC(c1ccccc1)CC2=O` (stereo unspecified), for which the results for the Activity in test [14] and in test [20] were 53.1% and 48.6%, respectively. Further, the pIC50 is 4.43 in test [15]; over 4.66 in [16]; 4.63 in test [17]; 4.76 in [18]; 4.71 in test [19]; 4.40 in [21].
